This is an account of results in PMC5736709, “Unravelling the specificity and mechanism of sialic acid recognition by the gut symbiont Ruminococcus gnavus” (Nature Communications, 2017).

Each structure is given as a SMILES string. pKd: −log10 of the molar value. “Also recorded” adds a separate entry of the source.

One may read the pKd as −log10 of the Kd, conventionally taken in molar units.

Holding throughout (design): species or system Ruminococcus gnavus ATCC 29149
Test [1] addresses T1, RgCBM40 (Mediterraneibacter gnavus (Ruminococcus gnavus), UniProt A7B557). Kind of test: STD NMR of sialoglycans with RgCBM40 WT. The following applies: 1 mM sialoglycan, 50 μM RgCBM40 WT, 288 K; 'exception' = monosaccharides for which binding was not detected. Here is the method: ^1H and ^13C resonance assignment for all the sugars was performed on the bases of 1D ^1H, 2D DQF-COSY, TOCSY, HSQC and NOESY experiments run on the free ligands in unbuffered D2O, pH 7.0. For STD NMR experiments, all the samples consisted of 1 mM sialoglycans and 50 μM RgCBM40 (WT or I95A mutant) in D2O buffer solution of 10 mM Tris-d11 pH 7.8 and 100 mM NaCl (ligand: protein ratio 20:1). An STD pulse sequence that included 2.5 ms and 5 ms trim pulses and a 3 ms spoil gradient was used. Saturation was achieved applying a train of 50 ms Gaussian pulses (0.40 mW) on the f2 channel, at 0.60 p.p.m. (on-resonance experiments) and 40 p.p.m. (off-resonance experiments). The broad protein signals were removed using a 40 ms spinlock (T1ρ) filter. All the experiments were recorded at ^1H frequency of 800.23 MHz on a Bruker Avance III spectrometer equipped with a 5 mm probe TXI 800 MHz H-C/N-D-05 Z BTO, at 288 K. For all the sialoglycans in the presence of RgCBM40, an STD experiment with a saturation time of 2 s and a relaxation delay of 5 s was performed, as a first test for binding. For the confirmed binders, the STD NMR experiments were carried out at different saturation times (0.5, 1, 2, 3, 4 and 5 s) with 1 K scans and relaxation delay of 5 s, in order to obtain the binding epitope mapping. The resulting build-up curves for each proton were fitted mathematically to a mono-exponential equation (y = a×[1-exp(b×x)]), from which the initial slopes (a×b) were obtained. For each ligand, the binding epitope mapping was obtained by dividing the initial slopes by the one of the H7 proton of the corresponding sialic acid ring, to which an arbitrary value of 100% was assigned. This normalisation of the STD values allows the comparison across all the sialoglycans.

In test [2] the target is T2, RgCBM40 R204A (Mediterraneibacter gnavus (Ruminococcus gnavus), UniProt A7B557, R204A).
T2 sequence (A7B557 50-237 R204A): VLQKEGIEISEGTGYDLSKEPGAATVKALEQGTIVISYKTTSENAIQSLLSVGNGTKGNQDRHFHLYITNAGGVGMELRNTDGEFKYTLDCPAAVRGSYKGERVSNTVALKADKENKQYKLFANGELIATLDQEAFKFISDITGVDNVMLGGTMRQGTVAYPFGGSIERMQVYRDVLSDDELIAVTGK
Put plainly: ITC of sialoglycans binding to RgCBM40 mutant R204A. The note with it: for pKd: ITC. As for the experimental part: (§1) Site directed mutagenesis of RgGH33 to introduce the D282A mutation in the active site was carried out using the QuikChange kit, following the manufacturer’s instructions, Agilent (Santa Clara, CA, USA). Site-directed mutants of RgCBM40; I95A, Y116A, E126A, R128A, R204A and double mutant R128A/R204A, were obtained from NZyTech (Lisbon, Portugal). The primers are listed in Supplementary Table 4. The integrity of the RgGH33 and RgCBM40 mutants was checked by circular dichroism (CD).
(§2) Isothermal titration calorimetry (ITC) experiments were performed using the PEAQ-ITC system (Malvern, Malvern, UK) with a cell volume of 200 µl. Prior to titration protein samples were exhaustively dialysed into PBS. The ligand was dissolved in the dialysis buffer. The cell protein concentration was 115 µM (except for mutant I95A where it was 173 µM and the wild-type interaction with 6′SL where it was 230 µM) and the syringe ligand concentration was 10 mM (25 mM for Neu5Ac). Controls with titrant (sugar) injected into buffer only were subtracted from the data. Analysis was performed using Malvern software, using a single-binding site model. The stoichiometry of binding sites was set to 1.0 as this was evident from the crystal structure. Quantitative and most qualitative experiments were carried out in triplicate.

Test [3] relates to RgCBM40 binding to LS174T MUC2. Put plainly: ELISA of RgCBM40 binding to LS174T MUC2 in competition with sugars. The note with it: RgCBM40 preincubated with 1 mM free sugar overnight at 4 °C; immobilised LS174T MUC2; A450. Here is the method:
RgCBM40 binding to purified mucins was tested by ELISA. Mucins (100 μl of 10 μg ml^−1) were immobilised onto a high binding 96 well plate (Greiner, Stonehouse, UK) overnight at 4 °C. All subsequent steps were carried out for 1 h at room temperature. The plates were blocked with 3% (w/v) BSA, incubated with RgCBM40 (500 μg ml^−1), followed by an incubation with 1:5000 anti-RgNanH (raised in rabbit, Biogenes) then with 1:5000 anti-rabbit secondary antibody (raised in donkey) conjugated to peroxidase (GE Healthcare). Between each step, the plate was washed with 3 × 300 μl of PBS containing 0.05% (v/v) Tween 20 (PBST). Prior to detection, an additional wash step and 30 s incubation with PBST was carried out. Binding was detected using tetramethylbenzidine (TMB) visualisation solution (Biolegend, San Diego, CA, USA) which was incubated for 15 min. The reaction was stopped by addition of 2 M H2SO4 and absorbance measured at 450 nm using a plate-reader (Bench Marl Plus, Biorad), subtracting background readings at 570 nm. Negative controls including no RgCBM40 (subtracted from A450 value), no primary or no secondary antibody were carried out in parallel. For comparison between plates, values were normalised to the reading for LS174T MUC2 which was arbitrarily set at 100%. For enzymatic treatment of the mucin, LS174T MUC2 (2 mg ml^−1) was incubated with sialidases (2 µg ml^−1) overnight at 4 °C on a rotary wheel prior to immobilisation on the plate. For chemical treatment of mucin, LS174T MUC2 was incubated with 0.1 M trifluoroacetic acid (TFA) at 80 °C for 1 h, dialysed against ammonium bicarbonate (50 mM), lyophilised and redissolved in H2O. For the competition assays, RgCBM40 was incubated with 1 mM of free sugar overnight at 4 °C on a rotary wheel prior to addition to the ELISA plate as above. Experiments were carried out in triplicate.
(In general: An ELISA detects its analyte on a solid surface through an enzyme-linked reagent.)

For test [4], the target named is T3, RgCBM40 R128A (Mediterraneibacter gnavus (Ruminococcus gnavus), UniProt A7B557, R128A).
T3 sequence (A7B557 50-237 R128A): T2 sequence (A7B557 50-237 R204A)
Kind of test: ITC of sialoglycans binding to RgCBM40 mutant R128A. The following applies: for pKd: ITC. As for the experimental part: as §1, §2

The target in test [5] is T1, RgCBM40. Kind of test: ITC of sialoglycans binding to RgCBM40 wild type. The note with it: RgCBM40 WT; for pKd: Kd, ITC in PBS, 115-230 μM protein in cell, syringe 10 mM sugar (25 mM for Neu5Ac), * = estimate only, Kd too high to determine; for -T∆S / ∆G / ∆H: ITC, SD of three results. As for the experimental part:
as §2

For the compound `CC(=O)N[C@H]1[C@H]([C@H](O)[C@H](O)CO)O[C@@](OC[C@H]2O[C@@H](O[C@H]3[C@H](O)[C@@H](O)C(O)O[C@@H]3CO)[C@H](O)[C@@H](O)[C@H]2O)(C(=O)O)C[C@@H]1O` (stereo partly drawn) [6′SL, α2,6-sialyllactose], in test [1], the “Binding to RgCBM40 detected by STD NMR” value is listed as “detected”. Further, in test [2], the “Binding by ITC (in words)” value is “abolished” and the pKd is < 1.60. For the same compound, in test [3], the “Effect of free sugar on adherence of RgCBM40 to MUC2” value is “significantly decreased”. Besides, in test [4], the “Binding by ITC (in words)” value is “abolished” and the pKd was < 1.60. In addition, in test [5], the pKd is 2.77, the “-T∆S” value is recorded as 5.82 ± 0.48 kcal/mol, the “∆G” value is given as -3.78 ± 0.05 kcal/mol and the “∆H” value is -9.61 ± 0.44 kcal/mol.
As to `CC(=O)N[C@H]1[C@H]([C@H](O)[C@H](O)CO)O[C@@](O[C@H]2[C@@H](O)[C@@H](CO)O[C@@H](O[C@H]3[C@H](O)[C@@H](O)C(O)O[C@@H]3CO)[C@@H]2O)(C(=O)O)C[C@@H]1O` (stereo partly drawn) [3′SL, α2-3 sialyllactose], in test [1], the “Binding to RgCBM40 detected by STD NMR” value was “detected”. Besides, in test [2], the “Binding by ITC (in words)” value is on record as “abolished; also recorded: loss of binding” and the negative-log Kd (pKd) was < 1.60. Further, in test [3], the “Effect of free sugar on adherence of RgCBM40 to MUC2” value was “significantly decreased”. For the same compound, in test [4], the “Binding by ITC (in words)” value is “abolished; also recorded: loss of binding” and the pKd was < 1.60. Besides, in test [5], the pKd was 3.24, the “-T∆S” value is 1.47 ± 0.77 kcal/mol, the “∆G” value is recorded as -4.43 ± 0.05 kcal/mol and the “∆H” value was -5.90 ± 0.72 kcal/mol.
